These results are taken from ChEMBL document CHEMBL5729177, “GLS1 inhibitors for treating disease” (2022).

Structures are written as SMILES.

In this assay the target is T1, Glutaminase kidney isoform, mitochondrial (Homo sapiens, UniProt O94925).
T1 sequence (O94925 whole entry): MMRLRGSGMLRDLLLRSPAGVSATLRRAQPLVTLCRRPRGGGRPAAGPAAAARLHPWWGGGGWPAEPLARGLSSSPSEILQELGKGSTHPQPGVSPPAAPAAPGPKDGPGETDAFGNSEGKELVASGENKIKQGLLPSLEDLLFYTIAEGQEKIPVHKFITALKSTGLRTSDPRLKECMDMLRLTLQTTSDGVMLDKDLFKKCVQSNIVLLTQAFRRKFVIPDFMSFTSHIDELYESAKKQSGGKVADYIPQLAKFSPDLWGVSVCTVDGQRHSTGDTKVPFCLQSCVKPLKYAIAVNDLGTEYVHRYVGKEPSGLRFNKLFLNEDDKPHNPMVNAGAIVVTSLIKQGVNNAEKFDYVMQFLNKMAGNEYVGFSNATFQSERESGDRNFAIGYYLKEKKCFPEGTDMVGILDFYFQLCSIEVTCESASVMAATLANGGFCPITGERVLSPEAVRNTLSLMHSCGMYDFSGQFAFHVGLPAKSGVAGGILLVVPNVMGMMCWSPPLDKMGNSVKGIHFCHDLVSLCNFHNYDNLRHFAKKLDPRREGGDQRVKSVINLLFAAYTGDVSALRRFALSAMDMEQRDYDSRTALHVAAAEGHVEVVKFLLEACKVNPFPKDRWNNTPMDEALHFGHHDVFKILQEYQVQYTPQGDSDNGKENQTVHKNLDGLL
In words: Enzymatic Activity Assay: The inhibition of purified recombinant human GAC by varying concentrations of inhibitors is assessed via a dual-coupled enzymatic assay. The glutamate produced by the glutaminase reaction is used by glutamate oxidase to produce α-ketoglutarate, ammonia, and hydrogen peroxide, with this hydrogen peroxide subsequently being used by horseradish peroxidase to produce resorufin in the presence of Amplex UltraRed. The assay buffer consisted of 50 mM Hepes (pH 7.4), 0.25 mM EDTA and 0.1 mM Triton X-100. GAC was incubated with potassium phosphate (10 minutes at room temperature) prior to incubation with inhibitor (10 minutes at room temperature). The final reaction conditions were as follows: 2 nM GAC, 50 mM potassium phosphate, 100 mU/mL glutamate oxidase (Sigma), 1 mM glutamine (Sigma), 100 mU/mL horseradish peroxidase (Sigma), 75 μM Amplex UltraRed (Life Technologies), and 1% (v/v) DMSO. The production of resorufin was monitored on a Perkin Elmer Envision plate reader (excitation 530 nm, emission 590 nm) either in a kinetics or endpoint mode (at 20 minutes). IC50 values were calculated using a four-parameter logistic curve fit.

Consider `O=C(NCc1cc(OC(F)(F)F)ccc1F)c1cn(CCC(F)Cn2cc(C(=O)NCc3ccccn3)nn2)nn1` (stereo unspecified), for which the IC50 is under 100 nM.

The IC50 is the concentration needed to halve the response being measured.
